US20100304971A1, “HERBICIDAL COMBINATION” (Bayer CropScience AG, priority 2008, published 2010)

Assays:
Polygonum convolvulus = test: Post-emergence action against weeds, greenhouse, visual scoring; format: in vivo; conditions: 11 days after application
Method: (§1) Seeds or rhizome pieces of monocotyledonous and dicotyledonous weeds were placed in sandy loam soil in plastic pots, covered with soil and cultivated in a greenhouse under good growth conditions. Three weeks after sowing, the test plants were treated at the 2- to 4-leaf stage. The compounds according to the invention, formulated as wettable powders or as emulsion concentrates, were sprayed onto the green parts of the plants in various dosages at a water application rate of 100 to 800 I/ha (converted). After the test plants had been left to stand in the greenhouse for 10 to 28 days under optimum growth conditions, the effect of the preparations was scored visually in comparison to untreated controls.
(§2) 0%=no control 100%=complete control

Veronica persica = test: as above; format: in vivo; conditions: 11 days after application
Method: as §1, §2

With `CCSC(C)CC1CC(=O)C(/C(CC)=N/OC/C=C/Cl)=C(O)C1` (stereo not drawn) [Compound B2-3, clethodim] as the compound, how does the “Polygonum convolvulus Control in %” value (Polygonum convolvulus; Table 4, 50 g of active ingredient/ha) read?
Its value is 20%.

With `CCO/N=C(\CC)C1=C(O)CC(c2c(C)cc(C)cc2C)CC1=O` (stereo not drawn) [Compound B2-8, tralkoxydim] as the compound, how does the “Polygonum convolvulus Control in %” value (Polygonum convolvulus; Table 5, 150 g of ai/ha) read?
The value was 20%.

How did the “Polygonum convolvulus Control in %” value (Polygonum convolvulus; Table 3, 100 g of active ingredient/ha) turn out when `CS(=O)(=O)c1ccc(C(=O)C2C(=O)CCCC2=O)c(Cl)c1COCC1CCCO1` (stereo not drawn) [Compound B3-3, tefuryltrione] was run?
Its value is 15%.

How did the “Polygonum convolvulus Control in %” value (Polygonum convolvulus; Table 1, 50 g of ai/ha) turn out when `CS(=O)(=O)c1ccc(C(=O)C2C(=O)CCCC2=O)c(Cl)c1COCC(F)(F)F` [Compound B3-4, tembotrione] was run?
The value was 45%.

How did the “Veronica persica Control in %” value (Veronica persica; Table 2, 25 g of ai/ha) turn out when `COCCOCc1nc(C(F)(F)F)ccc1C(=O)C1C(=O)C2CCC(C2)C1=O` (stereo not drawn) [Compound B3-5, 3-[[2-[(2-methoxyethoxy)methyl]-6-(trifluoromethyl)pyridin-3-yl]carbonyl]bicyclo[3.2.1]octane-2,4-dione] was run?
Its value is 20%.

`CCOc1cc(Cl)cc(CC)c1C1=C(O)C2(CCC(OC)CC2)NC1=O` (stereo not drawn) [Compound B4-1, cis-3-(4-chloro-2-ethoxy-6-ethylphenyl)-4-hydroxy-8-methoxy-1-azaspiro[4.5]dec-3-en-2-one] was tested. Which “Polygonum convolvulus Control in %” value (Polygonum convolvulus; Table 6, 7.5 g of ai/ha) did it give?
The value was 20%.

Which “Polygonum convolvulus Control in %” value (Polygonum convolvulus; Table 1, 2.5 g of ai/ha, 0%=no control, 100%=complete control) does the source give for “sodium salt of 2-iodo-N-[(4-methoxy-6-methyl-1,3,5-triazin-2-yl)carbamoyl]benzenesulfonamide [Compound A-2]” here?
The value was 10%.

What about the “Polygonum convolvulus Control in %” value (Polygonum convolvulus; Table 3, 2.5 g of active ingredient/ha) of the same compound?
The value was 20%.

What about the “Polygonum convolvulus Control in %” value (Polygonum convolvulus; Table 4, 2.5 g of active ingredient/ha) of the same compound?
Its value is 0%.

What about the “Polygonum convolvulus Control in %” value (Polygonum convolvulus; Table 5, 2.5 g of ai/ha) of the same compound?
Its value is 0%.

And the “Polygonum convolvulus Control in %” value (Polygonum convolvulus; Table 6, 2.5 g of ai/ha)?
Its value is 0%.

And the “Veronica persica Control in %” value (Veronica persica; Table 2, 2.5 g of ai/ha, 0%=no control, 100%=complete control)?
The value was 5%.
